Data set [1] relates to ovarian primordial follicles (PMF). Put plainly: Primordial follicle (PMF) counts in ovaries of cyclophosphamide-treated mice. The class given is in vivo, female Balb/c mice. Particulars: AS101 10 mg/kg every other day where co-treated; for ovarian PMF count, % of that of the control (PBS) group: ovaries removed 7 days after Cy. On the procedure: (§1) 6 week old female Balb/c mice were divided randomly into 4 groups. The mice in the treatment groups received cyclophosphamide (Cy) with or without co-treatment with AS101. Control mice received injections of phosphate buffer saline (PBS) or AS101. Cy treatment consisted of a single intraperitoneal injection of 75, 100 or 150 mg/kg Cy, or 4 weekly injections of 75 mg/kg Cy. AS101 was injected at a dose of 10 mg/kg every other day starting 1 week prior to Cy administration until 1 week after the last administration of Cy. PBS was injected on the same days as described for AS101.
(§2) Both ovaries were removed 7 days after the last Cy administration treatment, and fixed in 4% paraformaldehyde in PBS. The ovaries were embedded in paraplast and serially sectioned to 5 μm slices, and stained with haematoxylin/eosin. Care was taken to ensure that both ovaries were removed from each mouse in their entirety for histological processing. Primordial, primary and secondary follicles were counted by two blinded examiners who were unaware of the treatments, using a light microscope (AxioImager Z1, Zeiss, Oberkochen, Germany) in bright-field mode using a X20 objective. To avoid counting the same follicle twice, only one section in each set of five consecutive sections was used. The relative distribution of different stages of early follicle growth was then calculated.
(§3) Follicles were classified as primordial follicles (PMF) if they contained an oocyte surrounded by a partial or complete layer of squamous pregranulosa cells without a theca layer. In this species, PMF are located almost exclusively in the ovarian cortex, and they are very small (about 15 μm diameter). The follicular count of each follicle type was then multiplied by 5 to reach a representative of total follicles [Meirow et al., Hum Reprod 1999; 14:1903-1907]. The data from follicular count is presented as the percentage of the count obtained from the PBS-treated control group.
Student's T-test was performed to assess the differences between groups. Statistical significance was determined at p<0.05.

Data set [2] concerns ovarian follicles. The class given is in vivo, female Balb/c mice. The following applies: single 75, 100 or 150 mg/kg Cy or 4 weekly 75 mg/kg Cy, AS101 as co-treatment with Cy; for ratio of primary follicles relative to primordial follicles: FIG. 3A; for ratio of secondary follicles relative to primordial follicles: FIG. 3B. On the procedure:
as §1, §2, §3
The populations of primary follicles, secondary follicles and primordial follicles (PMF) were characterized following single injections of 75, 100 or 150 mg/kg Cy or 4 weekly injections of 75 mg/kg Cy.

In data set [3] the test system is anti-Mullerian hormone (AMH). Put plainly: Plasma anti-Mullerian hormone (AMH) levels by ELISA. The class given is in vivo, female Balb/c mice. The following applies: 4 weekly injections of 75 mg/kg Cy; control (PBS) group 10.7±2.1 ng/ml. On the procedure: as §1
Anti-Mullerian hormone (AMH) levels in the plasma were measured by ELISA techniques according to the manufacturer instruction (DSL, Webster, Tex.).
Mice were administered PBS, AS101, Cy or Cy+AS101 for 4 weeks, as described hereinabove.
On the technique in general: ELISA stands for enzyme-linked immunosorbent assay.

The subject of data set [4] is ovarian follicles. It counts as in vivo. On the procedure:
Follicular apoptosis was visualized using the TUNEL staining of ovaries from additional group of mice sacrificed at 12, 24 and 48 hours after a single injection of 150 mg/kg Cy.

Another data set relates to tumor. The following applies: cited from earlier work.
For data set [5] the following is noted: cited from earlier work.
For data set [6] the following is noted: cancer patients, AS101 in combination with chemotherapy; cited from earlier work.

In the case of `O=P1(N(CCCl)CCCl)NCCCO1` (centres unmarked) [Cy, cyclophosphamide], the “PMF count, % of that of the control group” value in data set [1] (75 mg/kg Cy once a week for 4 weeks, ovaries removed 7 days after last Cy) was 12.2%±9.5%. The “ovarian PMF count, % of that of the control (PBS) group” value in data set [1] (single i.p. injection of 75 mg/kg Cy) is on record as 52.1%±15.1%; in data set [1] (single i.p. injection of 100 mg/kg Cy), 48%±12.6%; in data set [1] (single i.p. injection of 150 mg/kg Cy), 38%±22.2%. Besides, the “ratio of primary follicles relative to primordial follicles” value with ovarian follicles [2] was “increased the ratio”. Besides, in the data set on ovarian follicles [2], the “ratio of secondary follicles relative to primordial follicles” value is given as “increased the ratio”. Besides, in data set [3], the “plasma AMH levels” value is 7.2 ± 1.9 ng/mL. Further, the “apoptotic (TUNEL) staining in granulosa cells of growing follicles” value in the data set on ovarian follicles [4] (24 hours after a single treatment with 150 mg/kg Cy, FIG. 5A) is “extensive apoptotic staining”.

For the molecule `Cl[TeH]1(Cl)(Cl)OCCO1` [AS101, ammonium trichloro(dioxyethylene-O,O′)tellurate], in the data set with ovarian follicles [2], the “ratio of primary follicles relative to primordial follicles” value is “prevented the Cy-induced increase in these ratios” and the “ratio of secondary follicles relative to primordial follicles” value is given as “prevented the Cy-induced increase in these ratios”. Moreover, the “effect in combination with Cy” value with tumor (treatment of tumor-bearing mice) is listed as “synergistic effect with Cy”. Besides, the anti-tumoral effect entry with tumor (variety of tumor models in mice and humans) is “exhibits an anti-tumoral effect”. Moreover, the “TUNEL staining of ovary, follicle appearance” value in the data set with ovarian follicles [4] (co-therapy with a chemotherapeutic agent and AS101, FIG. 5C) was “follicles destroyed by chemotherapy as well as healthy primordial follicles of ovary are observed”. For the same molecule, the “apoptotic (TUNEL) stain in primordial follicles” value in the data set on ovarian follicles [4] (ovary treated with AS101, FIG. 5B) was “no apoptotic stain was detected”. The survival of mice entry in data set [5] (mice treated with various cytotoxic drugs or radiation) is recorded as “increase the survival of mice”. In addition, in data set [5] (mice, lethal and sublethal doses of chemotherapeutic drugs, including cyclophosphamide), the “protection from hematopoietic damage” value is on record as “protect mice from hematopoietic damage”. The “severity of neutropenia, thrombocytopenia and alopecia that accompany chemotherapy” value in data set [6] was “significant reduction in the severity”.
